This is an account of results in patent publication US20140038889A1, “Modulators Of The GPR119 Receptor And The Treatment Of Disorders Related Thereto” (ARENA PHARMACEUTICALS, INC., priority 2011, published 2014).

What is called solubility is how much of the substance goes into solution per volume. Usually EC50 stands for the concentration that produces a half-maximal response. A high value points to a less potent agent.

Values after ≈ are worked out from the molar mass of the structure shown. “Also recorded” adds a separate entry of the source. Counter-ions that a name gives are not always drawn. Some results are limits rather than exact numbers.

The nature of data set [1]: Solubility of Compound 1. Format: physicochemical. As for the experimental part: To a solution of 5-fluoro-4-(2-methyl-6-(methylsulfonyl)pyridin-3-yloxy)-6-(piperidin-4-yloxy)pyrimidine hydrochloride (200 mg, 0.477 mmol) and 2,5-dioxopyrrolidin-1-yl 1-methylcyclopropyl carbonate (247 mg, 1.16 mmol) in DCM (3.5 mL) was added triethylamine (0.333 mL, 2.387 mmol). The reaction mixture was stirred at room temperature for 2 h. The mixture was concentrated under reduced pressure and the residue was purified by silica gel flash column chromatography to give the title compound as a white solid (183 mg, 80% yield). Exact mass calculated for C21H25FN4O6S: 480.15. found: LCMS m/z=481.2 [M+H]^+; ^1H NMR (400 MHz, CDCl3) δ ppm 0.63-0.66 (m, 2H), 0.87-0.90 (m, 2H), 1.56 (s, 3H), 1.82-1.84 (m, 2H), 2.02-2.04 (m, 2H), 2.55 (s, 3H), 3.35 (s, 3H), 3.28-3.37 (m, 2H), 3.78-3.79 (m, 2H), 5.36-5.40 (m, 1H), 7.68 (d, J=12 Hz, 1H), 8.01 (d, J=8 Hz, 1H), 8.07 (s, 1H). Solubility: <0.001 mg/mL (H2O); 2.758 mg/mL (20% HPCD).

The test system of data set [2] is Male 129SVE mice. Nature of the data set: GIP release in male 129SVE mice (plasma total GIP, ELISA). Format: in vivo. The conditions noted are these: 3 or 30 mg/kg p.o., 45 min. As for the experimental part: Male 129SVE mice (approximately 8 weeks old) were fasted for 18 h and randomly grouped (n=6) to receive a GPR119 agonist (Compound 1) at 3 or 30 mg/kg body weight. Compound 1 was delivered orally via a gavage needle (4 mL/kg), and after 45 min, a blood sample was collected to determine plasma total GIP levels. A separate control group received vehicle (PET (80% PEG:10% Ethanol:10% Tween80™)). Plasma GIP levels were determined using a GIP (total) ELISA kit from Millipore.

Data set [3] relates to Male 129SVE mice. Nature of the data set: Oral glucose tolerance test (oGTT) in male 129SVE mice. The data set is classed as in vivo. Conditions: for Plasma Glucose, Mean: n=6. How it is done:
Male 129SVE mice (approximately 8 weeks old) were fasted for 18 h and randomly grouped (n=6) to receive a GPR119 agonist (Compound 1) at 3, or 10 mg/kg body weight. Compound 1 was delivered orally via a gavage needle (p.o., volume at 4 mL/kg) 30 minutes prior to glucose bolus (3 g/kg) (time=−30 min in FIG. 1), with a separate group receiving vehicle (20% hydroxypropyl-beta-cyclodextrin (HPCD) as a control. At time 0 min the glucose bolus was administered. Levels of blood glucose were assessed using a glucometer (One-Touch Ultra™, LifeScan) at time −30 min (prior to compound administration), at 0 min (when the glucose bolus was given), and at 20, 40, 60, 120 min post glucose bolus. The plasma glucose level (Table A) and glucose excursion curve (FIG. 1) are shown. Glucose excursion reduction (area under the curve (AUC)) in compound-treated animals relative to vehicle control is shown in FIG. 2.

The target in data set [4] is T1, GPR119 receptor (Homo sapiens, UniProt Q8TDV5).
T1 construct: expressed in transfected cells
T1 sequence (Q8TDV5 2-335): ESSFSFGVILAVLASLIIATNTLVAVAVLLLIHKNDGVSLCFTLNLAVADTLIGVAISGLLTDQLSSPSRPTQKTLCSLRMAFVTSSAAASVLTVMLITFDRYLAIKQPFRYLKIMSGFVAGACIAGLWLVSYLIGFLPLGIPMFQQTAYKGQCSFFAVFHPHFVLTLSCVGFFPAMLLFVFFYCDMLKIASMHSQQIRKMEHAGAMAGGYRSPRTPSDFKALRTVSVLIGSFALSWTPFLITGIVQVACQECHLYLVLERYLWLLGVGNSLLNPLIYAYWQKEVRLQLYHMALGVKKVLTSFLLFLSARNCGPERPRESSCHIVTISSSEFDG
Put plainly: HTRF cAMP detection assay in CHO-K1 cells stably expressing the GPR119 receptor. The data set is classed as cell-based. How it is done: GPR119 agonist, Compound 1, was evaluated in an HTRF® cAMP detection assay (Cisbio, cAMP Dynamic 2 Assay Kit; #62AM4PEJ) according to the manufacturer's instructions using CHO-K1 cells stably expressing the GPR119 receptor. CHO-K1 cells were transduced with a lentiviral vector encoding the nucleotide sequence of GPR119 (NCBI mRNA and protein reference sequences: NM_178471.2 & NP_848566). The N-terminus of the GPR119 nucleotide sequence was modified to replace the first, methionine-coding, codon with a nucleotide sequence coding for a standard, nine amino acid, hemagglutinin tag. Following transduction, cells expressing the GPR119 receptor were isolated and a single clone was isolated following standard dilution-cloning procedures. On the day of the assay, cultured CHO-GPR119 cells were harvested, suspended in assay buffer and plated into 384-well assay plates (PerkinElmer® Proxiplate® #6008280) at a density of 2,000 cells per well. A cAMP standard curve was added to each plate. Compound 1 was dissolved in DMSO, serially diluted in DMSO and then diluted in assay buffer before addition to the cells. Compound 1 was evaluated in triplicate, using 10-point, 5-fold serial dilutions starting at 10 μM. […] Plates were then incubated at room temperature for 1 h prior to reading. Time-resolved fluorescence measurements were collected on PerkinElmer Envision™ or BMG Pherastar™ microplate readers. […]
Background: Time-resolved FRET reads energy transfer from a long-lived donor to a nearby acceptor.

Data set [5] relates to Male SD rats. Put plainly: Gastric emptying in male SD rats (stomach content 6 h post-dosing). The data set is classed as in vivo. Conditions: SD rats, 3, 10 or 30 mg/kg orally. How it is done:
Male SD rats were fasted for 18 h and randomly grouped (n=5). Fasted rats were allowed to access food for 30 min, and the amount of food consumed was recorded for each rat. At the end of the 30 min food intake, rats were put in cages without food and water, and dosed with Compound 1 at 3, 10, or 30 mg/kg, or vehicle control (20% HPCD) orally, or with exendin-4 (Ex-4) at 100 μg/kg i.p. Six hours post-dosing, rats were euthanized with CO2, and stomach content was determined.

The subject of data set [6] is Male ZDF rats. Nature of the data set: Oral glucose tolerance test (oGTT) in male ZDF rats. The data set is classed as in vivo. The conditions noted are these: for % Inhibition of Glucose Excursion: AUC relative to vehicle control, ZDF rats. As for the experimental part: Male ZDF rats were fasted for 18 h and randomly grouped (n=6) to receive the GPR119 agonist Compound 1(3 or 10 mg/kg), the control compound, Januvia (3 mg/kg), or a combination of Compound 1(3 mg/kg) and Januvia (3 mg/kg). The compounds were delivered orally via a gavage needle (p.o., volume 4 mL/kg) 60 min prior to glucose bolus (3 g/kg) (time=−60 min in FIG. 4), with a separate group receiving vehicle (20% hydroxypropyl-beta-cyclodextrin (HPCD)) as control. At time 0 min, a glucose bolus was administered. Levels of blood glucose were assessed using a glucometer (One-Touch Ultra™, LifeScan) at time −60 min (prior to compound administration), at 0 min (at time when glucose bolus was given), and at 30, 60, 90, and 120 min post glucose bolus. The plasma glucose excursion curve (FIG. 4) is shown.

Data set [7] has as its system humans. The conditions noted are these: human studies, infusion, over 24 hours; cited from earlier work.
Setting [8] is: 3 mg/kg p.o. 60 min prior to glucose bolus (3 g/kg).

In the case of `Cc1nc(S(C)(=O)=O)ccc1Oc1ncnc(OC2CCN(C(=O)OC3(C)CC3)CC2)c1F` [Compound 1, 1-methylcyclopropyl 4-(5-fluoro-6-(2-methyl-6-(methylsulfonyl)pyridin-3-yloxy)pyrimidin-4-yloxy)piperidine-1-carboxylate], the solubility in data set [1] (20% HPCD, aqueous with cosolvent or surfactant or cyclodextrin) was 2760 µg/mL (≈ 5.74 mM); in data set [1] (water, H2O) it was less than 1 µg/mL. The “Release of GIP (plasma total GIP, in words)” value in data set [2] was “stimulates the release of GIP”. Further, the “Plasma Glucose, Mean” value in data set [3] (3 mg/kg p.o., 0 min relative to glucose bolus) amounted to 92.0 mg/dL; in data set [3] (3 mg/kg p.o., 20 min post glucose bolus (3 g/kg)), 207.0 mg/dL; in data set [3] (3 mg/kg p.o., 40 min post glucose bolus (3 g/kg)), 280.6667 mg/dL; in data set [3] (3 mg/kg p.o., 60 min post glucose bolus (3 g/kg)), 248.8333 mg/dL; in data set [3] (3 mg/kg p.o., 120 min post glucose bolus (3 g/kg)), 161.8333 mg/dL; in data set [3] (3 mg/kg p.o., -30 min relative to glucose bolus (prior to compound administration)), 75.17 mg/dL. The “Plasma Glucose, Mean” value in data set [3] (10 mg/kg p.o., 0 min relative to glucose bolus) turned out to be 94.5 mg/dL; in data set [3] (10 mg/kg p.o., 20 min post glucose bolus (3 g/kg)), 190.3333 mg/dL; in data set [3] (10 mg/kg p.o., 40 min post glucose bolus (3 g/kg)), 229.6667 mg/dL; in data set [3] (10 mg/kg p.o., 60 min post glucose bolus (3 g/kg)) it was 199.6667 mg/dL; in data set [3] (10 mg/kg p.o., 120 min post glucose bolus (3 g/kg)), 150.6667 mg/dL; in data set [3] (10 mg/kg p.o., -30 min relative to glucose bolus (prior to compound administration)), 71.5 mg/dL. Further, the “Effect on blood glucose after challenge with glucose (in words)” value in data set [3] (male 129SVE mice, 3 or 10 mg/kg p.o.) is “lowered blood glucose”. Besides, the “Effect on plasma glucose levels in oGTT (in words)” value in data set [3] (male 129SVE mice, dose of 10 mg/kg) is “significantly reduced plasma glucose levels”. In addition, the “Agonist activity at GPR119 (in words)” value in data set [4] is “potent and selective agonist; also recorded: full agonist”. Moreover, the midpoint of the response in data set [4] (CHO-K1 cells stably expressing GPR119, 1 h incubation), the EC50, lay at 14.9 nM. The “Effect on gastric emptying (in words)” value in data set [5] is “had an effect on gastric emptying at high dosage (30 mg/kg), but that effect was less pronounced than the positive control, Ex-4”. Moreover, the “% Inhibition of Glucose Excursion” value in data set [6] (setting [8]) worked out at 14.8%; in data set [6] (10 mg/kg p.o. 60 min prior to glucose bolus (3 g/kg)), 26.2%. Further, the “Effect on blood glucose after a challenge with glucose (in words)” value in data set [6] (diabetic ZDF rats, 3 or 10 mg/kg p.o.) is reported as “lowered blood glucose”.
“PYY3-36: form of Peptide YY generated from PYY1-36 by cleavage of the N-terminal Tyr and Pro residues by DPP-IV”: in data set [7], the “Reduction of food intake” value is reported as 33%.
With `N[C@@H](CC(=O)N1CCn2c(nnc2C(F)(F)F)C1)Cc1cc(F)c(F)cc1F` [Januvia, dihydrogenphosphate salt of 3(R)-amino-1-[3-(trifluoromethyl)-5,6,7,8-tetrahydro[1,2,4]triazolo[4,3-a]pyrazin-7-yl]-4-(2,4,5-trifluorophenyl)butan-1-one, reference compound], the “% Inhibition of Glucose Excursion” value in data set [6] (setting [8]) was found to be 57.0%.
